# “And” between values parts separate entries of the source, which are not always exact repeats. Equal entries are not always repeated. Where two headings read alike, the source gives them in different places.
# How the values were obtained:
# [1] = system: α-syn overexpressing LUHMES cells; test: LDH release into the culture medium as measure of α-syn-induced cell death; assay type: cell-based, human; settings: for effect of specific PDE inhibitors on α-syn mediated toxicity (LDH release): FIG. 2B-I
# α-syn = test: Western blot quantification of α-syn bands; assay type: cell-based, human
# [2] = system: α-syn transduced LUHMES neurons; test: High-throughput screening of FDA-approved drugs for neuroprotective efficacy against α-syn (propidium iodide / Hoechst 33342 survival); assay type: cell-based, human; settings: 3 μM and 10 μM, each in triplicates (six runs); six days after transduction
# [3] = system: α-syn overexpressing LUHMES cells; test: Number of vital DAPI-stained nuclei (cell counts); assay type: cell-based, human; settings: 20 μM vinpocetine; α-syn with DMSO 57.0±3.4%
# Text: (§1) FIG. 3 The PDE1 inhibitor vinpocetine reduces cell death and 37 kDa α-syn specimen. (A) Cell counts of untransduced control cells (Ctrl, white bar), solvent treated α-syn transduced cells (black bar) and α-syn transduced cells with treated with different concentrations of vinpocetine (dark grey bars) confirmed the protective effect of vinpocetine. […] (C) Quantification of the CellEvent™ signal in untransduced control cells (Ctrl, left bar), α-syn transduced cells treated with solvent (black bar) and vinpocetine treated α-syn transduced cells (dark grey bar). (D) Representative Western blot of control cells (Ctrl), α-syn transduced cells without or with treatment vinpocetine in different concentrations. (E-H) Quantification of specific α-syn positive Western blot bands. […] The density of the 37 kDa band positively correlated with the LDH release (r^2=0.99, P<0.001, I) and negatively correlated with the number of vital cells (r^2=0.96, P<0.01, J). *P<0.05, **P<0.01, ***<0.001, n.s. not significant, one-way ANOVA with Tukey's HSD post-hoc test. Data are mean±s.e.m.
# (§2) To validate the data from the LDH measurement, we determined the number of vital 4′,6-diamidino-2-phenylindole (DAPI)-stained nuclei in untransduced control cells and α-syn overexpressing cells treated without or with ascending concentrations of vinpocetine. […]
# caspase 3 and 7 = test: CellEvent fluorescence signal for activated caspase 3 and 7; assay type: cell-based, human; settings: 20 μM vinpocetine; untransduced 1.0±0.2, α-syn with DMSO 74.8±5.7
# Text: as §1, §2
# [4] = system: TH+ neurons in the substantia nigra; test: Stereological counting of TH+ cells in the substantia nigra after intranigral rAAV injection; assay type: in vivo, mice
# Method: FIG. 5 Vinpocetine protects against α-syn-induced toxicity in vivo. (A) Experimental time flow. Grey bar: time point of stereotactical injection. (B) Experimental groups. Mice were injected stereotactically with either NaCl (control injection) or rAAV to overexpress luciferase (rAAV-Luc, control protein), or alpha-synuclein (rAAV-α-syn). Animals of each injection group were then randomized with a 1:1 allocation to be treated with once daily intraperitoneal injections of either solvent or vinpocetine for a 9-week period. (C) Representative images of the substantia nigra, immunostained for tyrosine hydroxylase (TH, grey) to identify dopaminergic neurons in solvent treated mice. Circle: area of cell loss upon α-syn overexpression. (D) Quantification of TH^+ cells on the control (Ctrl) side and the stereotactic injection side of solvent treated mice. On the injection side there was a significant loss of TH^+ cells (dark grey bar, right panel) after α-syn overexpression. (E) Images of the TH-immunostained substantia nigra of vinpocetine treated mice of the three injection groups. […] (F) Quantification of the number of TH^+ cells on the control (Ctrl) side and the stereotactic injection side of vinpocetine treated mice. […] Data are mean±s.e.m. Scale bars: 1 mm.
# To investigate the neurotoxicity of α-syn in vivo, recombinant adeno-associated viral (rAAV) vectors were stereotactically injected into the substantia nigra of 11 weeks old mice to overexpress human wild type α-syn (rAAV-α-syn; FIG. 5A). The injection of rAAV vectors expressing luciferase (rAAV-luc) or injections with NaCl were used as controls for the toxicity of viral-mediated protein overexpression or the injection procedure itself. The treatment started one week after the intranigral injections. Therefore, the mice of each injection group (NaCl, rAAV-luc, and rAAV-α-syn) were randomized to be treated by daily intraperitoneal injections with 25 mg vinpocetine in solvent or the corresponding volume of solvent alone (FIG. 5B). All animals survived the injection procedure and treatment period. A subgroup of animals were not treated and sacrificed three weeks after injection to determine the transduction rate for rAAV-α-syn and rAAV-luc (each n=3).
# To quantify the extent of neurodegeneration induced by rAAV mediated overexpression of α-syn, tyrosine-hydroxylase (TH) stainings of the substantia nigra and the striatum were performed. The number of TH^+ cells was determined by stereological counting. In the group of NaCl injected mice with solvent treatment, there was no significant difference in the number of TH^+ neurons between the injected (4108±54 cells) and the non-injected side (4168±92 cells, P=0.99, FIG. 5C, upper panel and FIG. 5D, blank columns).
# To determine the efficacy of vinpocetine in vivo, the number of TH^+ cells in the substantia nigra was determined in mice treated with daily injections of 25 mg/kg vinpocetine in solvent or the corresponding amount of solvent alone.
# microglial marker ibal = settings: mouse, in vivo
# [5] = vinpocetine treated mice, daily intraperitoneal 25 mg/kg
compound,measurement,setting,value
Nc1nc(-c2nn(Cc3ccccc3F)c3ncccc23)ncc1C1CC1 [BAY41-2272],relative LDH release compared to α-syn overexpressing control cells,[1]; 1 μM BAY41-2272,56.2±7.8%
same,"change of 37 kDa α-Syn band (Western blot, C20 antibody)","α-syn; α-Syn-transduced neurons with forskolin or BAY41-2272, FIG. 4d,e",reduction of a 37 kDa α-Syn band
Cc1ccc([N+](=O)[O-])cc1S(=O)(=O)N(C)C [BRL 50481],effect of specific PDE inhibitors on α-syn mediated toxicity (LDH release),[1]; different concentrations,did not have an effect
COc1ccc(Cc2nn3c([C@@H](CCCc4ccccc4)[C@@H](C)O)nc(C)c3c(=O)[nH]2)cc1OC [Bay60-7550],effect of specific PDE inhibitors on α-syn mediated toxicity (LDH release),[1]; different concentrations,did not have an effect
C[C@H](Cc1nc2c(cnn2-c2ccccc2Cl)c(=O)[nH]1)C(F)(F)F [Bay 73-6691],effect of specific PDE inhibitors on α-syn mediated toxicity (LDH release),[1]; different concentrations,did not have an effect
Cc1[nH]c(=O)c(C#N)cc1-c1ccncc1 [Milrinone],effect of specific PDE inhibitors on α-syn mediated toxicity (LDH release),[1]; different concentrations,did not have an effect
COc1ccc(C2CNC(=O)C2)cc1OC1CCCC1 (stereo not drawn) [Rolipram],effect of specific PDE inhibitors on α-syn mediated toxicity (LDH release),[1]; different concentrations,did not have an effect
CCCc1nn(C)c2c(=O)[nH]c(-c3cc(S(=O)(=O)N4CCN(C)CC4)ccc3OCC)nc12 [Sildenafil],effect of specific PDE inhibitors on α-syn mediated toxicity (LDH release),[1]; different concentrations,did not have an effect
OCCN(CCO)c1nc(N2CCCCC2)c2nc(N(CCO)CCO)nc(N3CCCCC3)c2n1 [dipyridamole],protective hit (Z-score above 2.5) in cell survival screening,[2],protective in all six runs
same,LDH level compared to α-syn overexpressing LUHMES cells with DMSO treatment,[1]; Five μM dipyridamole,77.0±5.1%
COC(=O)C1=C(C)NC(C)=C(C(=O)OC(C)C)C1c1cccc2nonc12 (stereo not drawn) [isradipine],effect of cation channel blockers on α-syn mediated toxicity (LDH release),"[1]; different concentrations, FIG. 4A,B",did not affect
NC1=N[C@H](O)[C@H]2[C@H]3O[C@]4(O)O[C@@H]([C@@H](O)[C@@]2(N1)[C@@H]4O)[C@]3(O)CO [tetrodotoxin],effect of cation channel blockers on α-syn mediated toxicity (LDH release),[1],did not affect
vinpocetine,effect of specific PDE inhibitors on α-syn mediated toxicity (LDH release),[1]; different concentrations,significant protection in a dose dependent manner
same,cells survived (cell number compared to untransduced controls),[3],85.1±4.1%
same,relative CellEvent signal (activated caspase 3 and 7),caspase 3 and 7,25.6±2.1
same,reduction of density of 37 kDa α-syn band compared to α-syn overexpressing cells treated with DMSO,α-syn; 20 μM vinpocetine,52.2±6.6%
same,α-syn monomer band compared to untransduced controls,"α-syn; 20 μM vinpocetine, DMSO treated α-syn cells 3.4±0.1-fold",5.1±0.4 fold
same,change in other α-syn bands,"α-syn; vinpocetine treatment, FIG. 3G,H",no change
same,difference in number of TH+ neurons between solvent and vinpocetine treatment,[4]; NaCl and rAAV-luc injection groups,no difference
same,number of TH+ cells in the substantia nigra on the rAAV-α-syn injection side,"[4]; mice, daily intraperitoneal 25 mg/kg vinpocetine, 9-week period, solvent treated 2915±79",3870±141 cells and 3870±14 cells
same,protection against α-syn-induced cell death of TH+ neurons in vivo,"[4]; rAAV-α-syn injected mice, vinpocetine once daily intraperitoneal, 9 weeks, FIG. 5F",completely prevented α-syn-induced cell death
same,"number of TH+ cells on the injection side, NaCl injected mice",[4]; [5],3984±160 cells
same,"number of TH+ cells on the injection side, rAAV-luc injected mice",[4]; [5],3860±138 cells
same,"ibal-immunoreactivity, vinpocetine versus solvent treatment",microglial marker ibal,nor any differences between vinpocetine and solvent treatment
